Assay results reported in PubChem BioAssay (NCI).
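Cultured in 96-well plates, cells were exposed to test compound for 48 hours across five concentrations. GI50: concentration for 50% inhibition of growth. Definition used: TGI = concentration required for complete inhibition of growth.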

What was measured:
Experiment in all cases: inhibition of tumour cell growth, NCI panel, 48 h
[1] = system: M14 melanoma
[2] = system: HOP-92 NSCLC
[3] = system: MOLT-4 leukemia
[4] = system: SF-295 CNS
[5] = system: HL-60(TB) leukemia
[6] = system: HCT-116 colon
[7] = system: RPMI-8226 leukemia
[8] = system: RXF 393 renal
[9] = system: COLO 205 colon
[10] = system: UACC-62 melanoma

SMILES	GI50 [1]	TGI [1]	GI50 [2]	TGI [2]	GI50 [3]	TGI [3]	GI50 [4]	TGI [4]	GI50 [5]	TGI [5]	GI50 [6]	TGI [6]	GI50 [7]	TGI [7]	GI50 [8]	TGI [8]	GI50 [9]	TGI [9]	GI50 [10]	TGI [10]
Nc1nc(/C=C\c2ccc([N+](=O)[O-])s2)nc(N2CCN(c3ccccc3)CC2)n1	19.5 µM	39.3 µM	22.8 µM	57.1 µM	23.1 µM	75.3 µM	20 µM	58.3 µM	18.8 µM	54.2 µM	17.2 µM	31.5 µM	22.9 µM	74 µM	18.6 µM	37.2 µM	15.4 µM	32.1 µM	13.6 µM	30.8 µM
O=C(/C=C\c1ccccc1O)c1ccc(O)cc1O		> 100 µM		> 100 µM		> 100 µM		> 100 µM		> 100 µM		> 100 µM		> 100 µM		> 100 µM		72.9 µM		> 100 µM
COc1cc2c(cc1OC(C)C)[C@H](c1ccc(Cl)cc1)N(c1ccc(N(C)CC3CCC(N4CCN(C)C(=O)C4)CC3)cc1)C(=O)C2 (some centres undefined)	2.72 µM	7.86 µM	1.98 µM	4.85 µM	0.363 µM	5.77 µM	2.16 µM	5.46 µM	2.19 µM	5.87 µM	0.447 µM	2.48 µM	2.13 µM	4.76 µM	2.66 µM	7.92 µM	2.59 µM	7.36 µM	0.521 µM	3.52 µM
CSc1ccc2c(cc1=O)[C@@H](NC(=O)c1cccc([N+](=O)[O-])c1)CCc1cc(O)c(O)c(O)c1-2		> 100 µM		> 100 µM		53.1 µM		> 100 µM		> 100 µM		35.9 µM		> 100 µM		> 100 µM		> 100 µM		39.2 µM
COc1ccc(Cc2c3cc(O)c(=O)cc-3ccn2C)cc1		30.5 µM		> 100 µM		> 81 µM		> 100 µM		> 100 µM		> 100 µM		> 100 µM		73.7 µM		> 100 µM		61 µM
O=C1C=C(Nc2ccc(Cl)cc2Cl)c2ccccc2C1=O		57.8 µM		56.5 µM		> 100 µM		> 100 µM		92.5 µM		> 100 µM		> 100 µM		> 100 µM		> 100 µM		32.8 µM
Cc1c(-c2cnccn2)ssc1=S		> 100 µM		89.7 µM		> 100 µM		> 95.1 µM		> 77.4 µM		> 100 µM		> 100 µM		80.9 µM		> 100 µM		> 100 µM
O=c1oc2ccc(I)cc2c(=O)n1-c1ccc(Br)cc1F	0.725 µM	4.99 µM	0.207 µM	0.634 µM	1.59 µM	5.18 µM	1.72 µM	3.41 µM	0.588 µM	3.74 µM	0.621 µM	2.38 µM	0.398 µM	2.57 µM	1.02 µM	4.39 µM	3.19 µM	11.6 µM	0.31 µM	1.17 µM
Cc1ccc(C)c(N2C(=O)C(=O)C(c3nc4ccccc4s3)/C(=N/N)C2=O)c1 (centres undefined)		> 100 µM		> 100 µM		> 100 µM		> 33.5 µM		> 100 µM		> 100 µM		> 100 µM		> 100 µM		> 100 µM		> 100 µM
CCc1nc(N)nc(N)c1-c1ccc(Cl)c([N+](=O)[O-])c1		98.8 µM		> 87.1 µM		> 65.2 µM		> 70.4 µM		> 51.5 µM		> 100 µM		> 83.9 µM		> 100 µM		55.5 µM		> 86.4 µM
COc1ccc2c(c1)C(=O)c1c-2n(CCCN(C)C)c(=O)c2ccccc12	0.483 µM	1.87 µM	0.886 µM	4.57 µM	< 0.0307 µM	12 µM	0.223 µM	1.21 µM	0.321 µM	2.64 µM	0.213 µM	1.42 µM	0.165 µM	0.532 µM	0.53 µM	2.34 µM	0.187 µM	2.62 µM	0.922 µM	2.5 µM
O=c1c2ccccc2sc2c(NCCCNCCO)nc3ccccc3c12	1.71 µM	3.33 µM	0.922 µM	5.67 µM	1.26 µM	3.32 µM	1.83 µM	4.11 µM	1.92 µM	3.92 µM	1.3 µM	2.6 µM	1.92 µM	4.89 µM	1.46 µM	3.52 µM	1.47 µM	3.23 µM	1.89 µM	3.85 µM
O=C(O)CCNCC(=O)O		> 100 µM		> 100 µM		> 100 µM		> 100 µM		> 100 µM		> 100 µM		> 100 µM		> 100 µM		> 100 µM		> 100 µM
CCOC(=O)C1=CCCC[C@H]1S(=O)(=O)Nc1ccc(F)cc1Cl	25.5 µM	96.7 µM	15.1 µM	58.3 µM	27.3 µM	92.2 µM	32.7 µM	> 100 µM	15.7 µM	47.9 µM	25 µM	95.3 µM	20.5 µM	67.6 µM	13.2 µM	61.9 µM	38.2 µM	> 100 µM	19.1 µM	72.7 µM
C=C(CCCCC)CN1CCCC1C(C)=O (centres undefined)		> 100 µM		63.8 µM		33 µM		> 94.7 µM		19.7 µM		> 80.9 µM		40 µM		> 95.7 µM		32.4 µM		> 100 µM
CCC[C@H]1O[C@@H]2CC(=O)O[C@@H]2C2=C1C(=O)C=CC2=O		32.8 µM		8.31 µM		8.98 µM		55.8 µM		37.7 µM		32.1 µM		74.6 µM		30.4 µM		9.03 µM		32.3 µM
COc1c/c(=C2\C=c3ccccc3=N2)[nH]/c1=C\c1[nH]c(C)cc1C	0.64 µM	> 31.9 µM	0.111 µM	1.97 µM	< 0.0203 µM		0.034 µM	0.593 µM	< 0.0167 µM	12.8 µM	< 0.0368 µM	1.71 µM	< 0.0151 µM	2.9 µM	0.538 µM	> 100 µM	0.0155 µM	13.6 µM	0.0134 µM	0.0268 µM
